Measurements taken from patent US10544143B2, “4-azaindole compounds” (BRISTOL-MYERS SQUIBB COMPANY, priority 2017, dated 2020).

What was measured:
[1] = biological target: human TLR7 (Homo sapiens (Human), UniProt Q9NYK1); assay: TLR7 inhibition reporter assay (HEK-Blue SEAP); assay type: cell-based; conditions: HEK-Blue cells overexpressing human TLR7, gardiquimod 7.5 μM stimulation, SEAP reporter
[2] = biological target: human TLR8 (Homo sapiens (Human), UniProt Q9NR97); assay: TLR8 inhibition reporter assay (HEK-Blue SEAP); conditions: read-out: TLR8 IC50; HEK-Blue cells overexpressing human TLR8, R848 15.9 μM stimulation, SEAP reporter;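 also: SEAP driven by IFN-β minimal promoter carrying NF-κB and AP-1 sites, compounds dosed 0.05 nM to 50 µM for 22 h, inhibition scaled between agonist-plus-DMSO and reference-inhibitor wells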
[3] = biological target: human TLR9 (Homo sapiens (Human), UniProt Q9NR96); assay: TLR9 inhibition reporter assay (HEK-Blue SEAP); conditions: read-out: TLR9 IC50; HEK-Blue cells overexpressing human TLR9, ODN2006 5 nM stimulation, SEAP reporter;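 also: SEAP driven by an IFN-β minimal promoter with NF-κB and AP-1 sites, read after 22 h, compounds dosed 0.05 nM–50 µM, inhibition scaled between agonist plus DMSO and reference-inhibitor wells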
Chain of human TLR9 (Q9NR96 26-1032): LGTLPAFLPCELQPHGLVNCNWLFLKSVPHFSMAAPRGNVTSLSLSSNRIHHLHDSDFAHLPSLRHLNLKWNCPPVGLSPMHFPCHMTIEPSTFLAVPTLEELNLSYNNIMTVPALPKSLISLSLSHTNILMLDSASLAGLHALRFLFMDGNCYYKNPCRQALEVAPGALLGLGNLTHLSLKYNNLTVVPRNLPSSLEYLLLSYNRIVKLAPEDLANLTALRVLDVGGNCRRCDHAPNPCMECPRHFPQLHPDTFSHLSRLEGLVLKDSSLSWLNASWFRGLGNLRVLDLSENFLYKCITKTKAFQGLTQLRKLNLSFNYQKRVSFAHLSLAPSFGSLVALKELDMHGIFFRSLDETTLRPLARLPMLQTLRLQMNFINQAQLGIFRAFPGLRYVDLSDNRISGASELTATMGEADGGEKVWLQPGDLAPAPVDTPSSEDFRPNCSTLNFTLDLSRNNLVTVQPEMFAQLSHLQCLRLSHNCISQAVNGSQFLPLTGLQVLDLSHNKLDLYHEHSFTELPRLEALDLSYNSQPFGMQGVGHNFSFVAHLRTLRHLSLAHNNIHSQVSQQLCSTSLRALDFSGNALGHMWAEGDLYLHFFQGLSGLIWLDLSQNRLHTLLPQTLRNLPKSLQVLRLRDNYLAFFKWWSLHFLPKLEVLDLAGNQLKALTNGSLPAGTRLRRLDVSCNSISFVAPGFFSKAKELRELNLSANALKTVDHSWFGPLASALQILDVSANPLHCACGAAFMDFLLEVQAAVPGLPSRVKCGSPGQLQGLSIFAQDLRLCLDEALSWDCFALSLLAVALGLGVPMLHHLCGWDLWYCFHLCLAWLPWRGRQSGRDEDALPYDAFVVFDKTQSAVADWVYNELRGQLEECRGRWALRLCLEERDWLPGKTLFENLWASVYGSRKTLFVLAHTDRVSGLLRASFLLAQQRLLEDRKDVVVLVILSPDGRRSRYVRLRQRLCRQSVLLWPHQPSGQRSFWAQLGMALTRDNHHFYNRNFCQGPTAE
Description: HEK-Blue™-cells (Invivogen) overexpressing human TLR7, TLR8 or TLR9 receptors were used for screening inhibitors of these receptors using an inducible SEAP (secreted embryonic alkaline phosphatase) reporter gene under the control of the IFN-β minimal promoter fused to five NF-κB and AP-1-binding sites. Briefly, cells are seeded into Greiner 384 well plates (15000 cells per well for TLR7, 20,000 for TLR8 and 25,000 for TLR9) and then treated with test compounds in DMSO to yield a final dose response concentration range of 0.05 nM-50 μM. After a 30 minute compound pre-treatment at room temperature, the cells are then stimulated with a TLR7 ligand (gardiquimod at a final concentration of 7.5 μM), TLR8 ligand (R848 at a final concentration of 15.9 μM) or TLR9 ligand (ODN2006 at a final concentration of 5 nM) to activate NF-κB and AP-1 which induce the production of SEAP. After a 22 hour incubation at 37° C., 5% CO2, SEAP levels are determined with the addition of HEK-Blue™ Detection reagent (Invivogen), a cell culture medium that allows for detection of SEAP, according to manufacturer's specifications.

Chain of human TLR8 (Q9NR97 27-1041): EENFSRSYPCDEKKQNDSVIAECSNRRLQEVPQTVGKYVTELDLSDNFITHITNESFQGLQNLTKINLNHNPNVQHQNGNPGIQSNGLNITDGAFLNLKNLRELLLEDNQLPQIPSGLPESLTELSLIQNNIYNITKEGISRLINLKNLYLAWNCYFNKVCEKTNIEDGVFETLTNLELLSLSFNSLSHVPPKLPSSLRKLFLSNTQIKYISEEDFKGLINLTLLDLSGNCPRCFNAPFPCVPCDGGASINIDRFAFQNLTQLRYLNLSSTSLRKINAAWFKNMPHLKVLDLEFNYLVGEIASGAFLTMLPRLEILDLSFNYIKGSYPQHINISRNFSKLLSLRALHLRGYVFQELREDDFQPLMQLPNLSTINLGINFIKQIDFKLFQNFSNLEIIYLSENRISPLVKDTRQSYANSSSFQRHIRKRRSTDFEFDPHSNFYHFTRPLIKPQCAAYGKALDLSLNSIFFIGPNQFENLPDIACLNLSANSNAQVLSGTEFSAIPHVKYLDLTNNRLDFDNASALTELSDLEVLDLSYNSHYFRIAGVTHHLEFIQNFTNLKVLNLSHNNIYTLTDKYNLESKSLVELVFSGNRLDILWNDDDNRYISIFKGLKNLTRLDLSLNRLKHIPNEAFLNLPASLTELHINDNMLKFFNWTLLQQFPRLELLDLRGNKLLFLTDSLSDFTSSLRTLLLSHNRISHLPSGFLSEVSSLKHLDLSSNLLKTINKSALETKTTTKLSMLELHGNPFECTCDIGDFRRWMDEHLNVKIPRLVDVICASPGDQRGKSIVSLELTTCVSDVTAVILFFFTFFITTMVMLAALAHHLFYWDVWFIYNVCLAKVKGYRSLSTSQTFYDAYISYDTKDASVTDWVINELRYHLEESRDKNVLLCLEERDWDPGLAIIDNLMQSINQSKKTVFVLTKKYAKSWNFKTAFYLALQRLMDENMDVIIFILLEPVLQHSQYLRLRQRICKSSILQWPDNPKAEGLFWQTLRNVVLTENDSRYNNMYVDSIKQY
Chain of human TLR7 (Q9NYK1 27-1049): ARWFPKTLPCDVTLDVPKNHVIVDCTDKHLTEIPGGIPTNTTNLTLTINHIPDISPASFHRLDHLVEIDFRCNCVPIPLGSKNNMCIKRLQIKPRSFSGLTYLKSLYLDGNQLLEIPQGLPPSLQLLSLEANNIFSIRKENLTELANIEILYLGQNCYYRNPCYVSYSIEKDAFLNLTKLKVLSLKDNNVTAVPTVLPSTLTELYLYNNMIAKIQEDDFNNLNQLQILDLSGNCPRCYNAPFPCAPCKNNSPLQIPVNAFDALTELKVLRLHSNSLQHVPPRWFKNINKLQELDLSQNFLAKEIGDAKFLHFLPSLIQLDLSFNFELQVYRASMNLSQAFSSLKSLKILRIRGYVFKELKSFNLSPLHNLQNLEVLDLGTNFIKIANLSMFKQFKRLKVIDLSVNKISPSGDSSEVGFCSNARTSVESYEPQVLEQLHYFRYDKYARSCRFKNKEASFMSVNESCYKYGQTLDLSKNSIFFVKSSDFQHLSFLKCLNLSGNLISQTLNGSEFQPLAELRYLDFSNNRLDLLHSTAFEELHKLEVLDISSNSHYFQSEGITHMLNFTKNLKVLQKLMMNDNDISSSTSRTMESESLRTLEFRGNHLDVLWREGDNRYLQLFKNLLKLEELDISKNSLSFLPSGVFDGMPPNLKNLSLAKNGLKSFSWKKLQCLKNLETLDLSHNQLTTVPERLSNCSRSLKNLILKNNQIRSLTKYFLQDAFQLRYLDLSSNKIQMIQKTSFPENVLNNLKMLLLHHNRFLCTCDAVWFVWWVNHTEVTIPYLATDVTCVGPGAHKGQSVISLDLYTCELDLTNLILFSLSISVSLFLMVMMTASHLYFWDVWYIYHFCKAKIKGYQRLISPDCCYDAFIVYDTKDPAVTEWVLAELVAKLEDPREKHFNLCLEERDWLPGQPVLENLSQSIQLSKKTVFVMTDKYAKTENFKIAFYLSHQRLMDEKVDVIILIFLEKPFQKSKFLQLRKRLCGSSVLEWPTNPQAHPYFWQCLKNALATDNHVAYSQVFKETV

IC50 [1]	IC50 [2]	IC50 [3]	SMILES
106 nM	181 nM	> 50000 nM	Cc1c(-c2[nH]c3ccc(C4CCC(N(C5CC5)C5COC5)CC4)nc3c2C(C)C)cn2cnnc2c1C (stereo not drawn) [Example 239]
5.4 nM	16 nM	5080 nM	COc1cc(-c2[nH]c3ccc(C4CCC(N(C)C5COC5)CC4)nc3c2C(C)C)cn2ncnc12 (stereo not drawn) [Example 240]
2 nM	2.9 nM	1750 nM	COc1cc(-c2[nH]c3ccc(C4CCC(N(C)CCS(C)(=O)=O)CC4)nc3c2C(C)C)cn2ncnc12 (stereo not drawn) [Example 241]
1.5 nM	15 nM	2410 nM	COc1cc(-c2[nH]c3ccc(C4CCC(N(C)CCS(C)(=O)=O)CC4)nc3c2C(C)C)cn2ncnc12 (stereo not drawn) [Example 242]
7.6 nM	9.5 nM	999 nM	CC(C)c1c(-c2cn(C)c3ncccc23)[nH]c2ccc(C3CCC(NC4CC4)CC3)nc12 (stereo not drawn) [Example 243]
1.6 nM	8.2 nM	2350 nM	COc1cc(-c2[nH]c3ccc(C4CCC(N5CC6(COC6)C5)CC4)nc3c2C(C)C)cn2ncnc12 (stereo not drawn) [Example 244]
2.7 nM	4.7 nM	343 nM	CC(C)c1c(-c2cn(C)c3ncccc23)[nH]c2ccc(C3CCC(N4CC5(COC5)C4)CC3)nc12 (stereo not drawn) [Example 245]
1.9 nM	2.6 nM	4280 nM	CC(C)c1c(-c2cc(CO)c3ncnn3c2)[nH]c2ccc(C3CCC(N(C)C4COC4)CC3)nc12 (stereo not drawn) [Example 246]
1.2 nM	1.2 nM	825 nM	CC(C)c1c(-c2cn(C)c3ncccc23)[nH]c2ccc(C3CCC(NCCS(C)(=O)=O)CC3)nc12 (stereo not drawn) [Example 247]
1.5 nM	13 nM	1780 nM	COc1cc(-c2[nH]c3ccc(C4CCC(N5CC6(C5)CS(=O)(=O)C6)CC4)nc3c2C(C)C)cn2ncnc12 (stereo not drawn) [Example 248]
25 nM	7.3 nM	5980 nM	Cc1c(-c2[nH]c3ccc(C4CCC(N(C)C5COC5)CC4)nc3c2C(C)C)cn(C)c(=O)c1C (stereo not drawn) [Example 249]
26 nM	57 nM	13700 nM	Cc1cc(-c2[nH]c3ccc(C4CCC(N(C)C5COC5)CC4)nc3c2C(C)C)cn(C)c1=O (stereo not drawn) [Example 250]
8.6 nM	13 nM	1750 nM	CC(C)c1c(-c2cn(C)c3ncccc23)[nH]c2ccc(C3CCC(NCCS(C)(=O)=O)CC3)nc12 (stereo not drawn) [Example 251]
8 nM	10 nM	7260 nM	CC(C)c1c(-c2cc(CO)c3ncnn3c2)[nH]c2ccc(C3CCC(N(C)C4COC4)CC3)nc12 (stereo not drawn) [Example 252]
0.65 nM	0.72 nM	1150 nM	COc1cc(-c2[nH]c3ccc(C4CCC(N5CC6(C5)CS(=O)(=O)C6)CC4)nc3c2C(C)C)cn2ncnc12 (stereo not drawn) [Example 253]
72 nM	27 nM	8730 nM	Cc1c(-c2[nH]c3ccc(C4CCC(N(C)C5COC5)CC4)nc3c2C(C)C)cn(C)c(=O)c1C (stereo not drawn) [Example 254]
0.6 nM	0.25 nM	218 nM	CC(C)c1c(-c2cn(C)c3ncccc23)[nH]c2ccc(C3CCC(N4CC5(C4)CS(=O)(=O)C5)CC3)nc12 (stereo not drawn) [Example 255]
1.2 nM	3.7 nM	335 nM	CC(C)c1c(-c2cn(C)c3ncccc23)[nH]c2ccc(C3CCC(N4CC5(C4)CS(=O)(=O)C5)CC3)nc12 (stereo not drawn) [Example 256]
35 nM	25 nM	175 nM	CC(C)c1c(-c2cn(CCS(C)(=O)=O)c3ncccc23)[nH]c2ccc(C3CCC(NCC(=O)N(C)C)CC3)nc12 (stereo not drawn) [Example 257]
13 nM	3.5 nM	100 nM	CC(C)c1c(-c2cn(CCS(C)(=O)=O)c3ncccc23)[nH]c2ccc(C3CCC(N4CC5(COC5)C4)CC3)nc12 (stereo not drawn) [Example 258]
19 nM	7.1 nM	321 nM	CC(C)c1c(-c2cn(CCS(C)(=O)=O)c3ncccc23)[nH]c2ccc(C3CCC(NCC4(S(C)(=O)=O)CC4)CC3)nc12 (stereo not drawn) [Example 259]
527 nM	173 nM	10900 nM	CC(C)c1c(-c2cn(CCS(C)(=O)=O)c3ncccc23)[nH]c2ccc(C3CCC(O)CC3)nc12 (stereo not drawn) [Example 260]
262 nM	90 nM	381 nM	CC(C)c1c(-c2cn(CCS(C)(=O)=O)c3ncccc23)[nH]c2ccc(C3CCC(NCC(=O)N(C)C)CC3)nc12 (stereo not drawn) [Example 261]
170 nM	19 nM	354 nM	CC(C)c1c(-c2cn(CCS(C)(=O)=O)c3ncccc23)[nH]c2ccc(C3CCC(NCC4(S(C)(=O)=O)CC4)CC3)nc12 (stereo not drawn) [Example 262]

IC50 [1]	IC50 [2]	IC50 [3]	SMILES
6.2 nM	7.6 nM	338 nM	CNC1CCC(c2ccc3[nH]c(-c4cn(CC#N)c5ncccc45)c(C(C)C)c3n2)CC1 (stereo not drawn) [Example 263]
0.59 nM	0.91 nM	392 nM	CC(C)c1c(-c2cn(C)c3ncccc23)[nH]c2ccc(C3CCC(NC4CCOCC4)CC3)nc12 (stereo not drawn) [Example 265]
45 nM	13 nM	322 nM	CC(C)c1c(-c2cn(CCS(C)(=O)=O)c3ncccc23)[nH]c2ccc(C3CCC(NC4CCOCC4)CC3)nc12 (stereo not drawn) [Example 266]
1.9 nM	2.6 nM	453 nM	CC(C)c1c(-c2cn(C)c3ncccc23)[nH]c2ccc(C3CCC(NC4CCOCC4)CC3)nc12 (stereo not drawn) [Example 267]
94 nM	32 nM	578 nM	CC(C)c1c(-c2cn(CC#N)c3ncccc23)[nH]c2ccc(C3CCC(NC4CCOCC4)CC3)nc12 (stereo not drawn) [Example 268]
38 nM	28 nM	322 nM	CNC1CCC(c2ccc3[nH]c(-c4cn(CC#N)c5ncccc45)c(C(C)C)c3n2)CC1 (stereo not drawn) [Example 270]
120 nM	40 nM	228 nM	CC(C)c1c(-c2cn(CCS(C)(=O)=O)c3ncccc23)[nH]c2ccc(C3CCC(NC4CCCOC4)CC3)nc12 (stereo not drawn) [Example 271]
76 nM	50 nM	398 nM	CC(C)c1c(-c2cn(CC#N)c3ncccc23)[nH]c2ccc(C3CCC(NCC(=O)N(C)C)CC3)nc12 (stereo not drawn) [Example 272]
75 nM	66 nM	1110 nM	CC(C)c1c(-c2cn(CC#N)c3ncccc23)[nH]c2ccc(C3CCC(NCCS(C)(=O)=O)CC3)nc12 (stereo not drawn) [Example 273]
8.5 nM	3.7 nM	474 nM	CC(C)c1c(-c2cn(CC#N)c3ncccc23)[nH]c2ccc(C3CCC(NC4CCCOC4)CC3)nc12 (stereo not drawn) [Example 274]
14 nM	8.5 nM	684 nM	CC(C)c1c(-c2cn(CC#N)c3ncccc23)[nH]c2ccc(C3CCC(NCCS(C)(=O)=O)CC3)nc12 (stereo not drawn) [Example 275]
8.9 nM	9 nM	309 nM	CC(C)c1c(-c2cn(CC#N)c3ncccc23)[nH]c2ccc(C3CCC(NCC(=O)N(C)C)CC3)nc12 (stereo not drawn) [Example 276]
0.4 nM	1.6 nM	1380 nM	COc1cc(-c2[nH]c3ccc(C4CCC(N(CC#N)C5COC5)CC4)nc3c2C(C)C)cn2ncnc12 (stereo not drawn) [Example 277]
1.5 nM	1.2 nM	837 nM	CC(C)c1c(-c2cn(C)c3ncccc23)[nH]c2ccc(C3CCC(NCC(C)(C)S(C)(=O)=O)CC3)nc12 (stereo not drawn) [Example 278]
0.31 nM	1.4 nM	1820 nM	Cc1cc(-c2[nH]c3ccc(C4CCC(NC5COC5)CC4)nc3c2C(C)C)cn2ncnc12 (stereo not drawn) [Example 279]
1.1 nM	7.2 nM	1270 nM	Cc1cc(-c2[nH]c3ccc(C4CCC(NCC(=O)N(C)C)CC4)nc3c2C(C)C)cn2ncnc12 (stereo not drawn) [Example 280]
0.48 nM	1.7 nM	880 nM	Cc1cc(-c2[nH]c3ccc(C4CCC(N5CC6(COC6)C5)CC4)nc3c2C(C)C)cn2ncnc12 (stereo not drawn) [Example 281]
0.32 nM	0.91 nM	661 nM	Cc1cc(-c2[nH]c3ccc(C4CCC(NC5COC5)CC4)nc3c2C(C)C)cc(C)n1 (stereo not drawn) [Example 282]
0.92 nM	1.4 nM	298 nM	Cc1cc(-c2[nH]c3ccc(C4CCC(N5CC6(COC6)C5)CC4)nc3c2C(C)C)cc(C)n1 (stereo not drawn) [Example 283]
3 nM	15 nM	4040 nM	Cc1cc(-c2[nH]c3ccc(C4CCC(NC5COC5)CC4)nc3c2C(C)C)cn2ncnc12 (stereo not drawn) [Example 284]
3.6 nM	5.5 nM	2310 nM	CC(C)c1c(-c2cn(C)c3ncccc23)[nH]c2ccc(C3CCC(NCC(C)(C)S(C)(=O)=O)CC3)nc12 (stereo not drawn) [Example 285]
5.2 nM	9.2 nM	1570 nM	Cc1cc(-c2[nH]c3ccc(C4CCC(N5CC6(COC6)C5)CC4)nc3c2C(C)C)cc(C)n1 (stereo not drawn) [Example 286]
25 nM	33 nM	2360 nM	Cc1cc(-c2[nH]c3ccc(C4CCC(NC5COC5)CC4)nc3c2C(C)C)cc(C)n1 (stereo not drawn) [Example 287]
28 nM	114 nM	6450 nM	Cc1cc(-c2[nH]c3ccc(C4CCC(N5CC6(COC6)C5)CC4)nc3c2C(C)C)cn2ncnc12 (stereo not drawn) [Example 288]

SMILES	IC50 [1]	IC50 [2]	IC50 [3]
CNC1CCC(c2ccc3[nH]c(-c4cn(CCS(C)(=O)=O)c5ncccc45)c(C(C)C)c3n2)CC1 (stereo not drawn) [Example 264]	55 nM	42 nM	255 nM
CNC1CCC(c2ccc3[nH]c(-c4cn(CCS(C)(=O)=O)c5ncccc45)c(C(C)C)c3n2)CC1 (stereo not drawn) [Example 269]	223 nM	88 nM	670 nM
